# Molecular target: T1, human PAH with the R408W mutation (Homo sapiens, UniProt P00439, R408W)
# T1 construct: expressed in transfected cells
# T1 sequence (P00439 1-452 R408W): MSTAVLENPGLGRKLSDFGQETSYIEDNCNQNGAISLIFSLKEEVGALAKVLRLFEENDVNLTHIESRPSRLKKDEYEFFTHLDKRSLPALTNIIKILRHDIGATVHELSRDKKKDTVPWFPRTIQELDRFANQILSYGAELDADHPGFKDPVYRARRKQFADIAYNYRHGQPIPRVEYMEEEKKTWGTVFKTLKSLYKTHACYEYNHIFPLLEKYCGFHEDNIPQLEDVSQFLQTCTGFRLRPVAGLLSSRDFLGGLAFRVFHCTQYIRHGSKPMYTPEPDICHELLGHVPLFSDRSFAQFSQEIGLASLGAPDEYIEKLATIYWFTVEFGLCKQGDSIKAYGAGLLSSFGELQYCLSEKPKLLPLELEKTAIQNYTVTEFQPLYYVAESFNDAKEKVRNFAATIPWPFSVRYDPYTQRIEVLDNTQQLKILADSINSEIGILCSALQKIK
# Experiment: Cell Based Phenylalanine Flux Assay
# Settings: A375 cells expressing human R408W PAH; 24 hrs compound incubation; 13C-Tyrosine by LC-MS; average where tested multiple times; read-out: AC50
row,SMILES,AC50 [nM]
1,"O=C(CC1CC1(F)F)N1CCc2[nH]cnc2[C@@H]1c1nc2ccccc2s1 (stereo partly drawn) [Example 1272, 1-((R)-4-(benzo[d]thiazol-2-yl)-6,7-dihydro-1H-imidazo[4,5-c]pyridin-5(4H)-yl)-2-(2,2-difluorocyclopropyl)ethenone]",> 5000
2,"O=C(CC1CC1(F)F)N1CCc2[nH]cnc2[C@@H]1c1nc2ccccc2s1 (stereo partly drawn) [Example 1273, 1-((R)-4-(benzo[d]thiazol-2-yl)-6,7-dihydro-1H-imidazo[4,5-c]pyridin-5(4H)-yl)-2-(2,2-difluorocyclopropyl)ethanone]",> 5000
3,"c1ccc2sc([C@H]3c4nc[nH]c4CCN3CCC3CC3)nc2c1 [Example 1275, (R)-2-(5-(2-cyclopropylethyl)-4,5,6,7-tetrahydro-1H-imidazo[4,5-c]pyridin-4-yl)benzo[d]thiazole]",1000 to 5000
4,"c1ccc2sc([C@@H]3c4nc[nH]c4CCN3CCC3CC3)nc2c1 [Example 1276, (S)-2-(5-(2-cyclopropylethyl)-4,5,6,7-tetrahydro-1H-imidazo[4,5-c]pyridin-4-yl)benzo[d]thiazole]",< 500
5,O=C(CC1CC(F)(F)C1)N1CCc2[nH]cnc2[C@H]1c1nc2ccccc2s1 [Example 1277],< 500
6,"O=C(CC1CC(F)(F)C1)N1CCc2[nH]cnc2[C@@H]1c1nc2ccccc2s1 [Example 1278, (R)-1-(4-(benzo[d]thiazol-2-yl)-6,7-dihydro-1H-imidazo[4,5-c]pyridin-5(4H)-yl)-2-(3,3-difluorocyclobutyl)ethanone]",1000 to 5000
7,"O=C(c1ncco1)N1CCc2[nH]cnc2[C@H]1c1nc2cccc(F)c2s1 [Example 1279, (S)-(4-(7-fluorobenzo[d]thiazol-2-yl)-6,7-dihydro-1H-imidazo[4,5-c]pyridin-5(4H)-yl)(oxazol-2-yl)methanone]",1000 to 5000
8,"O=C(c1ncco1)N1CCc2[nH]cnc2[C@@H]1c1nc2cccc(F)c2s1 [Example 1280, (R)-(4-(7-fluorobenzo[d]thiazol-2-yl)-6,7-dihydro-1H-imidazo[4,5-c]pyridin-5(4H)-yl)(oxazol-2-yl)methanone]",1000 to 5000
9,O=C(c1cnn2ccc(Br)cc12)N1CCc2[nH]cnc2[C@H]1c1nc2cc(F)ccc2s1 [Example 1281],500 to 1000
10,"O=C(c1cnn2ccc(Br)cc12)N1CCc2[nH]cnc2[C@@H]1c1nc2cc(F)ccc2s1 [Example 1282, (R)-(5-bromopyrazolo [1,5-a]pyridin-3-yl)(4-(5-fluorobenzo[d]thiazol-2-yl)-6,7-dihydro-1H-imidazo[4,5-c]pyridin-5(4H)-yl)methanone]",1000 to 5000
11,O=C(c1cnn2ccc(Br)cc12)N1CCc2[nH]cnc2[C@H]1c1nc2cccc(F)c2s1 [Example 1283],< 500
12,"O=C(c1cnn2ccc(Br)cc12)N1CCc2[nH]cnc2[C@@H]1c1nc2cccc(F)c2s1 [Example 1284, (R)-(5-bromopyrazolo[1,5-a]pyridin-3-yl)(4-(7-fluorobenzo[d]thiazol-2-yl)-6,7-dihydro-1H-imidazo[4,5-c]pyridin-5(4H)-yl)methanone]",1000 to 5000
13,"Cc1ccc2sc([C@@H]3c4nc[nH]c4CCN3C(=O)c3cncs3)nc2c1 [Example 1293, (S)-(4-(5-methylbenzo[d]thiazol-2-yl)-6,7-dihydro-1H-imidazo[4,5-c]pyridin-5(4H)-yl)(thiazol-5-yl)methanone]",500 to 1000
14,"Cc1ccc2sc([C@H]3c4nc[nH]c4CCN3C(=O)c3cncs3)nc2c1 [Example 1294, (R)-(4-(5-methylbenzo[d]thiazol-2-yl)-6,7-dihydro-1H-imidazo[4,5-c]pyridin-5(4H)-yl)(thiazol-5-yl)methanone]",1000 to 5000
15,"Cc1ccc2c(C(=O)N3CCc4[nH]cnc4[C@H]3c3nc4c(C)cccc4s3)cnn2c1 [Example 1295, (S)-(4-(4-methylbenzo[d]thiazol-2-yl)-6,7-dihydro-1H-imidazo[4,5-c]pyridin-5(4H)-yl)(6-methylpyrazolo[1,5-a]pyridin-3-yl)methanone]",500 to 1000
16,"Cc1ccc2c(C(=O)N3CCc4[nH]cnc4[C@@H]3c3nc4c(C)cccc4s3)cnn2c1 [Example 1296, (R)-(4-(4-methylbenzo[d]thiazol-2-yl)-6,7-dihydro-1H-imidazo[4,5-c]pyridin-5(4H)-yl)(6-methylpyrazolo[1,5-a]pyridin-3-yl)methanone]",1000 to 5000

# More lines, now with the values ahead:
row,AC50 [nM],SMILES
1,500 to 1000,O=C(c1nc(Cl)cs1)N1CCc2[nH]cnc2[C@H]1c1nc2cc(F)ccc2s1 [Example 1297]
2,1000 to 5000,"O=C(c1nc(Cl)cs1)N1CCc2[nH]cnc2[C@@H]1c1nc2cc(F)ccc2s1 [Example 1298, (R)-(4-chlorothiazol-2-yl)(4-(5-fluorobenzo[d]thiazol-2-yl)-6,7-dihydro-1H-imidazo[4,5-c]pyridin-5(4H)-yl)methanone]"
3,1000 to 5000,"O=C(c1nncs1)N1CCc2[nH]cnc2[C@H]1c1nc2cc(F)ccc2s1 [Example 1299, (S)-(4-(5-fluorobenzo[d]thiazol-2-yl)-6,7-dihydro-1H-imidazo[4,5-c]pyridin-5(4H)-yl)(1,3,4-thiadiazol-2-yl)methanone]"
4,1000 to 5000,"O=C(c1nncs1)N1CCc2[nH]cnc2[C@@H]1c1nc2cc(F)ccc2s1 [Example 1300, (R)-(4-(5-fluorobenzo[d]thiazol-2-yl)-6,7-dihydro-1H-imidazo[4,5-c]pyridin-5(4H)-yl)(1,3,4-thiadiazol-2-yl)methanone]"
5,< 500,O=C(c1cnn2ccc(Cl)cc12)N1CCc2[nH]cnc2[C@H]1c1nc2cccc(F)c2s1 [Example 1301]
6,< 500,"O=C(c1cnn2ccc(Cl)cc12)N1CCc2[nH]cnc2[C@@H]1c1nc2cccc(F)c2s1 [Example 1302, (R)-(5-chloropyrazolo[1,5-a]pyridin-3-yl)(4-(7-fluorobenzo[d]thiazol-2-yl)-6,7-dihydro-1H-imidazo[4,5-c]pyridin-5(4H)-yl)methanone]"
7,500 to 1000,"Cc1ccc2nc([C@@H]3c4nc[nH]c4CCN3C(=O)c3cncs3)sc2c1 [Example 1303, (S)-(4-(6-methylbenzo[d]thiazol-2-yl)-6,7-dihydro-1H-imidazo[4,5-c]pyridin-5(4H)-yl)(thiazol-5-yl)methanone]"
8,> 5000,"Cc1ccc2nc([C@H]3c4nc[nH]c4CCN3C(=O)c3cncs3)sc2c1 [Example 1304, (R)-(4-(6-methylbenzo[d]thiazol-2-yl)-6,7-dihydro-1H-imidazo[4,5-c]pyridin-5(4H)-yl)(thiazol-5-yl)methanone]"
9,500 to 1000,"Cc1cccc2sc([C@@H]3c4nc[nH]c4CCN3C(=O)c3cncs3)nc12 [Example 1305, (S)-(4-(4-methylbenzo[d]thiazol-2-yl)-6,7-dihydro-1H-imidazo[4,5-c]pyridin-5(4H)-yl)(thiazol-5-yl)methanone]"
10,1000 to 5000,"Cc1cccc2sc([C@H]3c4nc[nH]c4CCN3C(=O)c3cncs3)nc12 [Example 1306, (R)-(4-(4-methylbenzo[d]thiazol-2-yl)-6,7-dihydro-1H-imidazo[4,5-c]pyridin-5(4H)-yl)(thiazol-5-yl)methanone]"
11,< 500,O=C(CC1CCC1)N1CCc2[nH]cnc2[C@H]1c1nc2ccccc2s1 [Example 1307]
12,1000 to 5000,"O=C(CC1CCC1)N1CCc2[nH]cnc2[C@@H]1c1nc2ccccc2s1 [Example 1308, (R)-1-(4-(benzo[d]thiazol-2-yl)-6,7-dihydro-1H-imidazo[4,5-c]pyridin-5(4H)-yl)-2-cyclobutylethanone]"
13,500 to 1000,COCc1ccc2c(C(=O)N3CCc4[nH]cnc4[C@H]3c3nc4ccccc4s3)cnn2c1 [Example 1309]
14,> 5000,"COCc1ccc2c(C(=O)N3CCc4[nH]cnc4[C@@H]3c3nc4ccccc4s3)cnn2c1 [Example 1310, (R)-(4-(benzo[d]thiazol-2-yl)-6,7-dihydro-1H-imidazo[4,5-c]pyridin-5(4H)-yl)(6-(methoxymethyl)pyrazolo[1,5-a]pyridin-3-yl)methanone]"
15,500 to 1000,CN(C)Cc1ccc2c(C(=O)N3CCc4[nH]cnc4[C@H]3c3nc4ccccc4s3)cnn2c1 [Example 1311]
16,> 5000,"CN(C)Cc1ccc2c(C(=O)N3CCc4[nH]cnc4[C@@H]3c3nc4ccccc4s3)cnn2c1 [Example 1312, (R)-(4-(benzo[d]thiazol-2-yl)-6,7-dihydro-1H-imidazo[4,5-c]pyridin-5(4H)-yl)(6-((dimethylamino)methyl)pyrazolo[1,5-a]pyridin-3-yl)methanone]"
17,500 to 1000,O=C(c1cnn2cc(CN3CCC(F)(F)C3)ccc12)N1CCc2[nH]cnc2[C@H]1c1nc2ccccc2s1 [Example 1313]
18,> 5000,"O=C(c1cnn2cc(CN3CCC(F)(F)C3)ccc12)N1CCc2[nH]cnc2[C@@H]1c1nc2ccccc2s1 [Example 1314, (R)-(4-(benzo[d]thiazol-2-yl)-6,7-dihydro-1H-imidazo[4,5-c]pyridin-5(4H)-yl)(6-((3,3-difluoropyrrolidin-1-yl)methyl)pyrazolo[1,5-a]pyridin-3-yl)methanone]"
19,1000 to 5000,"Cc1cccc2nc([C@H]3c4nc[nH]c4CCN3C(=O)c3cncs3)sc12 [Example 1315, (R)-(4-(7-methylbenzo[d]thiazol-2-yl)-6,7-dihydro-1H-imidazo[4,5-c]pyridin-5(4H)-yl)(thiazol-5-yl)methanone]"
20,< 500,"Cc1cccc2nc([C@@H]3c4nc[nH]c4CCN3C(=O)c3cncs3)sc12 [Example 1316, (S)-(4-(7-methylbenzo[d]thiazol-2-yl)-6,7-dihydro-1H-imidazo[4,5-c]pyridin-5(4H)-yl)(thiazol-5-yl)methanone]"
21,< 500,O=C(c1cnc(-c2ccccn2)o1)N1CCc2[nH]cnc2[C@H]1c1nc2ccccc2s1 [Example 1317]

# Source: US20250171438A1 (Agios Pharmaceuticals, Inc., priority 2022, published 2025)
